Measured values taken from US12570659B2, “Bicyclic heteroaryl compounds useful as IRAK4 inhibitors” (BRISTOL-MYERS SQUIBB COMPANY, priority 2019, dated 2026).

What was measured:
JAK3 kinase = JAK3 kinase (Homo sapiens (Human), UniProt P52333); test: JAK3 Homogeneous Time Resolved Fluorescence (HTRF) Assay; assay type: binding; settings: for IC50: competition binding with fluorescein-labeled ATP competitive probe; for Ratio of JAK3 IC50 to IRAK4 IC50: selectivity for IRAK4 over JAK3
Experimental: JAK3 Homogeneous Time Resolved Fluorescence (HTRF) Assay
A time resolved FRET-based competition binding assay was used to assess test article binding to JAK3 kinase. His-tagged or GST-tagged kinase at a concentration of 1 nM was incubated with 0.2 nM Tb-labeled detection antibody (anti-His or anti-GST), test compound, and fluorescein-labeled ATP competitive probe at a concentration corresponding to the probe's equilibrium dissociation constant for one hour. Fluorescence at 495 nm and 520 nm was measured using an EnVision microplate reader to quantify FRET between Tb-labeled detection antibody and fluorescein-labeled probe. Background subtracted FRET ratios were normalized to the maximum signal obtained in the absence of test compound. These values were converted to a percent inhibition. Percent inhibition was determined for test compounds at 11 concentrations. The IC50, defined as the concentration of the competing test compound needed to reduce specific binding of the probe by 50%, was calculated using the 4 parameter logistic equation to fit the data.

IRAK4 = IRAK4 (Homo sapiens (Human), UniProt Q9NWZ3); test: IRAK4 Inhibition Assay; assay type: biochemical; settings: ATP 500 μM; IRAK4 0.6 nM; 60 min room temperature
Experimental: IRAK4 Inhibition Assay The assays were performed in U-bottom 384-well plates. […] The reaction was initiated by the combination of IRAK4 with substrates and test compounds. The reaction mixture was incubated at room temperature for 60 min. and terminated by adding 45 μL of 35 mM EDTA to each sample. The reaction mixture was analyzed on the Caliper LABCHIP® 3000 (Caliper, Hopkinton, MA) by electrophoretic separation of the fluorescent substrate and phosphorylated product. Inhibition data were calculated by comparison to no enzyme control reactions for 100% inhibition and vehicle-only reactions for 0% inhibition.

Sequence of JAK3 kinase (P52333 whole entry): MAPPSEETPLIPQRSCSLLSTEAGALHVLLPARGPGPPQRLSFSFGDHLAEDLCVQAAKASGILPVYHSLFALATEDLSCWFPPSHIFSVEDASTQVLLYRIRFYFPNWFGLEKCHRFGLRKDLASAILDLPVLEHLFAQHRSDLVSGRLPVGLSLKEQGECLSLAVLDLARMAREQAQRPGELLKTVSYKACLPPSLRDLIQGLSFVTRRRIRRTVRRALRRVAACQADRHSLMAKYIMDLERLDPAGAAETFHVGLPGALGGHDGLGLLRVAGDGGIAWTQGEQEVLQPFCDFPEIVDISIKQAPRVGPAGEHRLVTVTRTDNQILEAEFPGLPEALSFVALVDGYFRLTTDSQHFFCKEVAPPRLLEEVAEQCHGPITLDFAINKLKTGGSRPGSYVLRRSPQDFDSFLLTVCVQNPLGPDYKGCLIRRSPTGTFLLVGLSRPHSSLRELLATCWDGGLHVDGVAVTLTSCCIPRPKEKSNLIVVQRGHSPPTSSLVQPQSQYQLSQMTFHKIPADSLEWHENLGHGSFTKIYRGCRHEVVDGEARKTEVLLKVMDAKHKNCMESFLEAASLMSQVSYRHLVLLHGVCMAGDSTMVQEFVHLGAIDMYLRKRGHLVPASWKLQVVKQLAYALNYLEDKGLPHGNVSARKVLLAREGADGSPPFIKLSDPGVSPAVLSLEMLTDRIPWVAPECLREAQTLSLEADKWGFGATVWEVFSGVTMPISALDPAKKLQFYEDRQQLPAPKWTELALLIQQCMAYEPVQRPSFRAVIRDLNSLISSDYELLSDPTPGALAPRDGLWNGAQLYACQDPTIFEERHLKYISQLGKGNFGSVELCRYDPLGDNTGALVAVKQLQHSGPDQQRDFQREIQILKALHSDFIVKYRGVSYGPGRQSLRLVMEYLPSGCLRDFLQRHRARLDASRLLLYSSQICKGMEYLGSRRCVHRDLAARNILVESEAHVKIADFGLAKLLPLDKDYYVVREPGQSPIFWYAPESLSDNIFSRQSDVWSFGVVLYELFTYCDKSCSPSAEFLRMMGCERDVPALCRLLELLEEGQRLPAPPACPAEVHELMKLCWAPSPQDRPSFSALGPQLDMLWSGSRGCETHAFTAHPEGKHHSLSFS
Sequence of IRAK4 (Q9NWZ3 whole entry, species assumed): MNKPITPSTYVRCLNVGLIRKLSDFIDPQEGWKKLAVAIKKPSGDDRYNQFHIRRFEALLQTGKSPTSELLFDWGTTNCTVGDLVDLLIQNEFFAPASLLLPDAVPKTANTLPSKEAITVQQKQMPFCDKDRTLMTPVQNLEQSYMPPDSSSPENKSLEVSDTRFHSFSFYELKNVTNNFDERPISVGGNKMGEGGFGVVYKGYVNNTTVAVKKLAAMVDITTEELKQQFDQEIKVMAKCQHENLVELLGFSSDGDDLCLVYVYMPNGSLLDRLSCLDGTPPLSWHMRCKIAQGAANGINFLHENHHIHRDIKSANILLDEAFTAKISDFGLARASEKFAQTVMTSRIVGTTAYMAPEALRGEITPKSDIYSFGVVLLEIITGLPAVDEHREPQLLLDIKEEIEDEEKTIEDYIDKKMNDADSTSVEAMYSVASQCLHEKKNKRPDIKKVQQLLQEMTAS

| SMILES | IC50 (JAK3 kinase) | Ratio of JAK3 IC50 to IRAK4 IC50 (JAK3 kinase) | IC50 (IRAK4) |
| --- | --- | --- | --- |
| CC(C)Nc1c(C(=O)NC[C@@H](F)C(C)(C)O)cnn2cc(-c3ccccn3)cc12 [Example 16, (R)—N-(2-fluoro-3-hydroxy-3-methylbutyl)-4-(isopropylamino)-6-(pyridin-2-yl)pyrrolo[1,2-b]pyridazine-3-carboxamide] | > 50 µM | >2941 | 0.017 µM |
| CC(C)Nc1c(C(=O)NC[C@@H](F)C(C)(C)O)cnn2cc(-c3ccc(F)cn3)cc12 [Example 18, (R)—N-(2-fluoro-3-hydroxy-3-methylbutyl)-6-(5-fluoropyridin-2-yl)-4-(isopropylamino)pyrrolo[1,2-b]pyridazine-3-carboxamide] | > 50 µM | >4167 | 0.012 µM |
| CC(C)(O)[C@H](F)CNC(=O)c1cnn2cc(-c3nccs3)cc2c1NC1CCOCC1 [Example 19, (R)—N-(2-fluoro-3-hydroxy-3-methylbutyl)-4-((tetrahydro-2H-pyran-4-yl)amino)-6-(thiazol-2-yl) pyrrolo[1,2-b]pyridazine-3-carboxamide] | > 10 µM | >667 | 0.015 µM |
| CC(C)(O)[C@H](F)CNC(=O)c1cnn2cc(-c3ccc(C#N)cn3)cc2c1NC1CCOCC1 [Example 20, (R)-6-(5-cyanopyridin-2-yl)-N-(2-fluoro-3-hydroxy-3-methylbutyl)-4-((tetrahydro-2H-pyran-4-yl)amino)pyrrolo[1,2-b] pyridazine-3-carboxamide] | > 50 µM | >333 | 0.15 µM |
| CC(C)(O)CCNc1c(C(=O)NC[C@@H](F)C(C)(C)O)cnn2cc(-c3ccc(F)nc3)cc12 [Example 21, (R)—N-(2-fluoro-3-hydroxy-3-methylbutyl)-6-(6-fluoropyridin-3-yl)-4-((3-hydroxy-3-methylbutyl)amino)pyrrolo[1,2-b] pyridazine-3-carboxamide] | > 50 µM | >294 | 0.17 µM |
| CC(C)(O)CCNc1c(C(=O)NC[C@@H](F)C(C)(C)O)cnn2cc(-c3cccnc3F)cc12 [Example 22, (R)—N-(2-fluoro-3-hydroxy-3-methylbutyl)-6-(2-fluoropyridin-3-yl)-4-((3-hydroxy-3-methylbutyl)amino)pyrrolo[1,2-b]pyridazine-3-carboxamide] | > 50 µM | >278 | 0.18 µM |
| Cc1cc(-c2cc3c(NCCC(C)(C)O)c(C(=O)NC[C@@H](F)C(C)(C)O)cnn3c2)ccn1 [Example 23, (R)—N-(2-fluoro-3-hydroxy-3-methylbutyl)-4-((3-hydroxy-3-methylbutyl)amino)-6-(2-methylpyridin-4-yl)pyrrolo[1,2-b]pyridazine-3-carboxamide] | > 50 µM | >455 | 0.11 µM |
| Cc1cc(F)ncc1-c1cc2c(NCCC(C)(C)O)c(C(=O)NC[C@@H](F)C(C)(C)O)cnn2c1 [Example 24, (R)—N-(2-fluoro-3-hydroxy-3-methylbutyl)-6-(6-fluoro-4-methylpyridin-3-yl)-4-((3-hydroxy-3-methylbutyl)amino)pyrrolo[1,2-b]pyridazine-3-carboxamide] | > 10 µM | >71 | 0.14 µM |
| CC(C)(O)CCNc1c(C(=O)NC[C@@H](F)C(C)(C)O)cnn2cc(-c3cccnc3)cc12 [Example 25, (R)—N-(2-fluoro-3-hydroxy-3-methylbutyl)-4-((3-hydroxy-3-methylbutyl)amino)-6-(pyridin-3-yl) pyrrolo[1,2-b]pyridazine-3-carboxamide] | > 50 µM | >179 | 0.28 µM |
| CC(C)(O)CCNc1c(C(=O)NC[C@@H](F)C(C)(C)O)cnn2cc(-c3cccc(F)c3)cc12 [Example 26, (R)—N-(2-fluoro-3-hydroxy-3-methylbutyl)-6-(3-fluorophenyl)-4-((3-hydroxy-3-methylbutyl)amino)pyrrolo[1,2-b] pyridazine-3-carboxamide] | > 50 µM | >135 | 0.37 µM |
| CC(C)(O)CCNc1c(C(=O)NC[C@@H](F)C(C)(C)O)cnn2cc(-c3ccc(C#N)nc3)cc12 [Example 27, (R)-6-(6-cyanopyridin-3-yl)-N-(2-fluoro-3-hydroxy-3-methylbutyl)-4-((3-hydroxy-3-methylbutyl)amino)pyrrolo[1,2-b]pyridazine-3-carboxamide] | > 50 µM | >208 | 0.24 µM |
| CC(C)(O)CCNc1c(C(=O)NC[C@@H](F)C(C)(C)O)cnn2cc(-c3ccncc3)cc12 [Example 28, (R)—N-(2-fluoro-3-hydroxy-3-methylbutyl)-4-((3-hydroxy-3-methylbutyl)amino)-6-(pyridin-4-yl)pyrrolo[1,2-b]pyridazine-3-carboxamide] | > 50 µM | >1241 | 0.0403 µM |
| CC(C)(O)[C@H](F)CNC(=O)c1cnn2cc(-c3cccnc3)cc2c1NC1CCCC1 [Example 30, (R)-4-(cyclopentylamino)-N-(2-fluoro-3-hydroxy-3-methylbutyl)-6-(pyridin-3-yl)pyrrolo[1,2-b]pyridazine-3-carboxamide] | > 10 µM | >182 | 0.055 µM |
| CC(C)(O)[C@H](F)CNC(=O)c1cnn2cc(-c3ccccc3)cc2c1NC1CC1 [Example 31, (R)-4-(cyclopropylamino)-N-(2-fluoro-3-hydroxy-3-methylbutyl)-6-phenylpyrrolo[1,2-b] pyridazine-3-carboxamide] | > 2 µM | >61 | 0.033 µM |
| CC(C)(O)[C@H](F)CNC(=O)c1cnn2cc(-c3cccnc3)cc2c1NC1CC1 [Example 32, (R)-4-(cyclopropylamino)-N-(2-fluoro-3-hydroxy-3-methylbutyl)-6-(pyridin-3-yl)pyrrolo[1,2-b]pyridazine-3-carboxamide] | > 50 µM | >4545 | 0.011 µM |
| CC(C)Nc1c(C(=O)NC[C@@H](F)C(C)(C)O)cnn2cc(-c3ccnn3C)cc12 [Example 33, (R)—N-(2-fluoro-3-hydroxy-3-methylbutyl)-4-(isopropylamino)-6-(1-methyl-1H-pyrazol-5-yl) pyrrolo[1,2-b]pyridazine-3-carboxamide] | > 50 µM | >1923 | 0.026 µM |
| CC(C)Nc1c(C(=O)NC[C@@H](F)C(C)(C)O)cnn2cc(C#N)cc12 [Example 35, (R)-6-cyano-N-(2-fluoro-3-hydroxy-3-methylbutyl)-4-(isopropylamino)pyrrolo[1,2-b]pyridazine-3-carboxamide] | > 50 µM | >263 | 0.19 µM |
| CC(C)Nc1c(C(=O)NC[C@@H](F)C(C)(C)O)cnn2cc(C3CC3)cc12 [Example 36, (R)-6-cyclopropyl-N-(2-fluoro-3-hydroxy-3-methylbutyl)-4-(isopropylamino)pyrrolo[1,2-b]pyridazine-3-carboxamide] | > 50 µM | >1087 | 0.046 µM |
| CC(C)Nc1c(C(=O)NC[C@@H](F)C(C)(C)O)cnn2cc(-n3ncc4cncnc43)cc12 [Example 37, (R)—N-(2-fluoro-3-hydroxy-3-methylbutyl)-4-(isopropylamino)-6-(1H-pyrazolo[3,4-d]pyrimidin-1-yl)pyrrolo[1,2-b]pyridazine-3-carboxamide] | > 50 µM | >13158 | 0.0038 µM |
| CC(C)Nc1c(C(=O)NC[C@@H](F)C(C)(C)O)cnn2cc(-c3cnn4cc(Cl)cnc34)cc12 [Example 38, (R)-6-(6-chloropyrazolo[1,5-a]pyrimidin-3-yl)-N-(2-fluoro-3-hydroxy-3-methylbutyl)-4-(isopropylamino)pyrrolo[1,2-b]pyridazine-3-carboxamide] | > 9.9 µM | >254 | 0.039 µM |
| CC(C)Nc1c(C(=O)NC[C@@H](F)C(C)(C)O)cnn2cc(-n3ncc4cc(C#N)cnc43)cc12 [Example 39, (R)-6-(5-cyano-1H-pyrazolo[3,4-b]pyridin-1-yl)-N-(2-fluoro-3-hydroxy-3-methylbutyl)-4-(isopropylamino) pyrrolo[1,2-b]pyridazine-3-carboxamide] | > 50 µM | >2381 | 0.021 µM |
| CC(C)Nc1c(C(=O)NC[C@@H](F)C(C)(C)O)cnn2cc(Nc3ccc(C#N)cn3)cc12 [Example 40, (R)-6-((5-cyanopyridin-2-yl)amino)-N-(2-fluoro-3-hydroxy-3-methylbutyl)-4-(isopropylamino) pyrrolo[1,2-b]pyridazine-3-carboxamide] | > 50 µM | >208 | 0.24 µM |
| CC(C)Nc1c(C(=O)NC[C@@H](F)C(C)(C)O)cnn2cc(Nc3cc(C#N)ccn3)cc12 [Example 41, (R)-6-((4-cyanopyridin-2-yl)amino)-N-(2-fluoro-3-hydroxy-3-methylbutyl)-4-(isopropylamino)pyrrolo[1,2-b]pyridazine-3-carboxamide] | > 50 µM | >81 | 0.62 µM |
